pIC50: −log10 of the molar value. “Also recorded” adds a separate entry of the source. Where two headings read alike, the source gives them in different places. Some results are limits rather than exact numbers.

Assay [1] addresses T1, recombinant HIV-1 integrase (Human immunodeficiency virus type 1 group M subtype B, UniProt P03366).
T1 construct: recombinant HIV-1 integrase; S. Hughes, ABL Basic Research NCI-FCRDC, Frederick Md
The assay can be described thus: HIV-1 integrase 3′ processing and strand transfer assay. Type of assay: biochemical. The protocol:
(§1) The 5-bromovaleroyl thioester, compound 44, and two 5-pyridiniovaleroyl thioesters, compounds 45and 47, were analyzed in mechanistic and target-based assays. […] Assays for activity against HIV-1 reverse transcriptase rAdT (template/primer) and rCdG (template/primer) using recombinant HIV-1 reverse transcriptase (S. Hughes, ABL Basic Research NCI-FCRDC, Frederick Md.) were performed as described by Rice (1997) supra. Substrate cleavage of recombinant HIV-1 protease in the presence of test compounds using an HPLC-based methodology with the artificial substrate Ala-Ser-Glu-Asn-Try-Pro-Ile-Val-amide (Multiple Peptide Systems, San Diego Calif.) was performed as described by Rice (1997) supra. The ability of recombinant HIV-1 integrase (S. Hughes, ABL Basic Research NCI-FCRDC, Frederick Md.) to carry out 3′ processing and strand transfer activities in the presence of test compounds was performed as described by Buckheit (1994) AIDS Res. Hum. Retroviruses 10:1497-1506, and Turpin (1998) Antimicrob. Agents Chemother. 42: 487-494.

Assay [2] addresses T2, recombinant HIV-1 reverse transcriptase (Human immunodeficiency virus type 1 group M subtype B, UniProt P03366).
T2 construct: recombinant HIV-1 reverse transcriptase; S. Hughes, ABL Basic Research NCI-FCRDC, Frederick Md
Kind of assay: HIV-1 reverse transcriptase assay (rAdT and rCdG template/primer). It is filed as biochemical. The protocol:
as §1

Assay [3] has as its target T3, Virion-associated NCp7 proteins from cell-free HIV-1MN (Human immunodeficiency virus type 1 group M subtype B, UniProt P05888).
T3 construct: attack on the mature NCp7 retroviral zinc fingers in the cell-free virus; endogenous in cells
The assay can be described thus: Virion NCp7 cross-linking (non-reducing Western blotting). The protocol:
The interaction of zinc finger inhibitors, such as the thiolesters of the invention, with cell-free virus can result in modification of intravirion NCp7 protein and loss of infectivity. Virion-associated NCp7 proteins from cell-free HIV-1MN were treated with thiolester compounds 44 and 45. They were also evaluated by non-reducing Western blotting using HIV-1 NCp7-specific antibodies. […] Cross-linking by compound 45 was due to formation of intermolecular disulfide bonds because reduction with 2-mercaptoethanol (β-ME) completely reversed the gel retardation.
Virion cross linking was performed as described by Rice (1995) Science 270:1194-1197 and Turpin (1997) Antiviral Chem. Chemother. 8:60-67. Briefly, highly purified HIV-1MN (11.8 μg total protein) was incubated for 2 hour with concentrations of compound. Virions were concentrated and residual compound was removed by centrifugation (18,000×g, 1 h, 4° C.). The viral pellet was solubilized in 0.5 M Tris-HCl, (pH 6.8), 50% glycerol, 8% SDS and 0.4% bromophenol blue and proteins resolved by Western blotting. Western blotting to detect the expression of HIV-1 proteins in U1 cells or virus pellets for virion cross-linking experiments was carried out as described by Turpin (1996) J. Virol. 70:6180-6189. Briefly, 50 μg of total cellular protein for U1 experiments or the. total virion pellet (11.8 μg total viral protein) for NCp7 cross linking studies was resolved on 4 to 20% polyacrylamide gels in SDS with Tris-Glycine (Novex, San Diego Calif.). Samples for reduced gels were boiled for 5 min in the presence of 5% β-ME prior to loading. Resolved proteins were electroblotted on to polyvinylidene difluoride (PVDF) membranes, and HIV-1 specific proteins were detected using a mixture of goat anti-HIV-1 NCp7 and p24 or anti-NCp7 for virion proteins alone (a kind gift of L. E. Henderson, AIDS Vaccine Program NCI-FCRDC, Frederick, Md.). Western blots were developed using standard chemiluminescence methodologies, as produced and described by Dupont-NEN, Wilmington, Del.
Purified concentrated retrovirus and antisera against the purified NC protein of the virus can be used to test the ability of a specific compound to penetrate the virus and react with the NC protein by forming disulfide complexes in the core of the virus. Compound are mixed with the whole retrovirus under reaction conditions appropriate for the compound. The virus is then removed from the reagent by centrifugation and disrupted in, e.g., standard SDS-PAGE sample buffer with (reduced) and without (non-reduced) 2-mercaptoethanol. The viral proteins are then separated by standard SDS-PAGE and the sample examined for the presence or absence of the monomeric zinc finger protein in the non-reduced sample. Depending upon the virus used in the experiment and the conditions of electrophoresis, the zinc finger protein can be visualized by protein staining methods, or by immuno-blot methods. Compounds which react with the zinc finger protein by attacking the zinc finger complexes and forming disulfide cross-linked products inactivate the virus. Thus, compounds of interest (i.e., those which cause cross-linking), including the thiolesters of the invention, reduce the amount of monomeric zinc finger protein detected.
On the technique in general: A western blot detects proteins with antibodies after separation by electrophoresis.

In another assay the test system is HIV-1NL4-3. Kind of assay: Virucidal (viral inactivation) assay on MAGI-CCR-5 cells. Type of assay: cell-based. The protocol:
The cell-based p24 attachment assay was performed as described in Rice (1995) Science 270:1194-1197. Viral inactivation assays were carried out as described in Rice (1995) Science 270:1194-1197, and Turpin (1997) supra, with minor modifications. Briefly, MAGI-CCR-5 cells were plated (4×10^4 cells per well) in flat bottomed 2-cm well plates for 24 h, after which the culture media was removed and compound-treated virus was added. The virus used was obtained by transient transfection of pNL4-3 into HeLa cells yielding the replication competent NL4-3 virus. Virus containing supernatants were treated for 2 h at 37° C. after which residual compound was removed by centrifugation (18,000×g, 1 h, 4° C.). Virus pellets were resuspended and placed on the MAGI-CCR-5 monolayers and cultured for 48 h. Monolayers were fixed and stained with X-gal solution and blue cells counted.
NCp7 cross-linking is associated with viral inactivation. Whether the ability to crosslink the nucleocapsid protein, as determined by Western blotting, correlated with the ability to inactivate the viruses was tested in a virucidal assay. Virus stocks of HIV-1NL4-3 were incubated with various thiolester compounds. The virus was obtained by transient transfection of a replication-competent pNL4-3 plasmid into HeLa cells. Residual thiolester was removed by centrifugation. […]

Regarding `CC(=O)NS(=O)(=O)c1ccc(NC(=O)c2ccccc2SC(=O)CCCCBr)cc1` [Compound 44, N-[2-(5-bromovaleroylthio)benzoyl]sulfacetamide], in assay [1], the “inhibition of HIV-1 integrase (in words)” value is “did not inhibit”. Moreover, the “inhibition of HIV-1 reverse transcriptase (in words)” value in assay [2] is given as “did not inhibit”. Besides, the “intravirion NCp7 cross-linking (in words)” value in assay [3] is recorded as “very poor cross-linking agent”.

As for `CC(=O)NS(=O)(=O)c1ccc(NC(=O)c2ccccc2SC(=O)CCCC[n+]2ccccc2)cc1` [Compound 45, N-[2-(5-pyridinio-valeroylthio)benzoyl]sulfacetamide bromide], the “inhibition of HIV-1 integrase (in words)” value in assay [1] is “did not inhibit”. In addition, in assay [2], the “inhibition of HIV-1 reverse transcriptase (in words)” value is “did not inhibit”. In addition, in assay [3], the “intravirion NCp7 cross-linking (in words)” value is listed as “extensive cross-linking of NCp7; also recorded: strong cross-linker of intravirion NCp7”.

For `O=C(CCCC[n+]1ccccc1)Sc1ccccc1C(=O)Nc1ccc(S(=O)(=O)c2ccc([N+](=O)[O-])cc2)cc1` [Compound 47], in assay [1], the pIC50 is less than 4.00 and the “inhibition of HIV-1 integrase (in words)” value is “did not inhibit”. For the same molecule, in assay [2], the pIC50 was less than 4.00 and the “inhibition of HIV-1 reverse transcriptase (in words)” value is recorded as “did not inhibit”. Moreover, the pIC50 in assay [2] (read-out: Reverse transcriptase rCdG I50, Table 7, rCdG template/primer, high dose test 100 μM) is less than 4.00. Moreover, the “intravirion NCp7 cross-linking (in words)” value in assay [3] was “did not effectively initiate NCp7 cross-linking”. Moreover, the “potency at inactivating virus vs compounds 44 and 45” value with HIV-1NL4-3 is given as “approximately 6 fold”.

Regarding `O=C(O)CCCC[n+]1ccccc1.[Br-]` [Compound 53, 5-pyridiniovaleric acid], the “intravirion NCp7 cross-linking (in words)” value in assay [3] was “Neither intravirion cross-linkage of NCp7 nor virucidal activity were detected”. For the same molecule, in the assay on HIV-1NL4-3, the “virucidal activity (in words)” value is recorded as “Neither intravirion cross-linkage of NCp7 nor virucidal activity were detected”.

The values are drawn from patent US7625917B2, “Thiolesters and uses thereof” (priority 1998, dated 2009).
